Experimental data reported in article PMC5218480 (PLoS ONE, 2017).

System: MV-4-11 cells
Experiment: Gene expression microarray analysis (Affymetrix PrimeView) and GSEA
Format: cell-based, human
Set-up: RFU PODN (11730768_x_at) / Fold change /veh PODN (11730768_x_at) / RFU LINC00158 (11744669_a_at) / Fold change /veh LINC00158 (11744669_a_at) / RFU DUSP10 (11751237_a_at) / Fold change /veh DUSP10 (11751237_a_at) / RFU ID3 (11757404_x_at) / Fold change /veh ID3 (11757404_x_at) / RFU PLEKHG5 (11737974_s_at) / Fold change /veh PLEKHG5 (11737974_s_at) / RFU LRRC4B (11730491_at) / Fold change /veh LRRC4B (11730491_at) / RFU GIMAP4 (11747438_a_at) / Fold change /veh GIMAP4 (11747438_a_at) / RFU KRT8 (11758183_x_at) / Fold change /veh KRT8 (11758183_x_at) / RFU CNN1 (11734310_a_at) / Fold change /veh CNN1 (11734310_a_at) / RFU VPS37D (11726825_at) / Fold change /veh VPS37D (11726825_at) / RFU C10orf10 (11716522_x_at) / Fold change /veh C10orf10 (11716522_x_at) / RFU KIR2DL2 /// KIR2DL4 /// KIR2DL5A /// KIR2DL5B /// KIR2DS1 /// KIR2DS2 /// KIR2DS3 /// KIR2DS4 /// KIR3DL3 /// KIR3DL3 /// KIR3DS1 (11738374_at) / Fold change /veh KIR2DL2 /// KIR2DL4 /// KIR2DL5A /// KIR2DL5B /// KIR2DS1 /// KIR2DS2 /// KIR2DS3 /// KIR2DS4 /// KIR3DL3 /// KIR3DL3 /// KIR3DS1 (11738374_at) / RFU C1QL1 (11718748_at) / Fold change /veh C1QL1 (11718748_at) / RFU TMPRSS4 (11747572_a_at) / Fold change /veh TMPRSS4 (11747572_a_at) / RFU HAMP (11756126_x_at) / Fold change /veh HAMP (11756126_x_at) / RFU RNFT2 (11725882_a_at) / Fold change /veh RNFT2 (11725882_a_at) / RFU NR4A2 (11747474_a_at) / Fold change /veh NR4A2 (11747474_a_at) / RFU ABCC12 (11746883_a_at) / Fold change /veh ABCC12 (11746883_a_at) / RFU TMEM136 (11760407_x_at) / Fold change /veh TMEM136 (11760407_x_at) / RFU CLDN22 /// WWC2 (11732394_at) / Fold change /veh CLDN22 /// WWC2 (11732394_at) / RFU HLA-DPB1 (11760878_x_at) / Fold change /veh HLA-DPB1 (11760878_x_at) / RFU SPINT1 (11716480_a_at) / Fold change /veh SPINT1 (11716480_a_at) / RFU GAP43 (11754022_s_at) / Fold change /veh GAP43 (11754022_s_at) / RFU A4GNT (11735810_at) / Fold change /veh A4GNT (11735810_at) / RFU PRB3 (11715151_x_at) / Fold change /veh PRB3 (11715151_x_at) / RFU TUBB4B (11761932_at) / Fold change /veh TUBB4B (11761932_at) / RFU CAPN14 (11732068_a_at) / Fold change /veh CAPN14 (11732068_a_at) / RFU TMCC2 (11721928_a_at) / Fold change /veh TMCC2 (11721928_a_at) / RFU IRGQ (11745062_a_at) / Fold change /veh IRGQ (11745062_a_at) / RFU FAM174B (11720279_a_at) / Fold change /veh FAM174B (11720279_a_at) / RFU TMPRSS4 (11748680_a_at) / Fold change /veh TMPRSS4 (11748680_a_at) / RFU FAM212B (11763350_a_at) / Fold change /veh FAM212B (11763350_a_at) / RFU PLEKHG5 (11743358_a_at) / Fold change /veh PLEKHG5 (11743358_a_at) / RFU ZSCAN30 (11745921_a_at) / Fold change /veh ZSCAN30 (11745921_a_at) / RFU CMKLR1 (11741424_a_at) / Fold change /veh CMKLR1 (11741424_a_at) / RFU LOC101060620 /// MAPK8IP1 (11723275_at) / Fold change /veh LOC101060620 /// MAPK8IP1 (11723275_at) / RFU SPTSSB (11747773_x_at) / Fold change /veh SPTSSB (11747773_x_at) / RFU PRSS12 (11739890_at) / Fold change /veh PRSS12 (11739890_at) / RFU BIN1 (11741810_x_at) / Fold change /veh BIN1 (11741810_x_at) / RFU WNT11 (11732464_a_at) / Fold change /veh WNT11 (11732464_a_at) / RFU C10orf10 (11716521_a_at) / Fold change /veh C10orf10 (11716521_a_at) / RFU C5orf56 (11738089_at) / Fold change /veh C5orf56 (11738089_at) / RFU CYB561 (11721691_x_at) / Fold change /veh CYB561 (11721691_x_at) / RFU ANKRD19P (11752326_a_at) / Fold change /veh ANKRD19P (11752326_a_at) / RFU OR2T12 /// OR2T33 /// OR2T8 (11738714_s_at) / Fold change /veh OR2T12 /// OR2T33 /// OR2T8 (11738714_s_at) / RFU VCAN (11748164_a_at) / Fold change /veh VCAN (11748164_a_at) / RFU JSRP1 (11732532_at) / Fold change /veh JSRP1 (11732532_at) / RFU KRTAP10-11 (11738290_x_at) / Fold change /veh KRTAP10-11 (11738290_x_at) / RFU MYO3A (11730013_a_at) / Fold change /veh MYO3A (11730013_a_at) / RFU EBF3 (11725865_a_at) / Fold change /veh EBF3 (11725865_a_at) / RFU CAMK2N1 (11719241_x_at) / Fold change /veh CAMK2N1 (11719241_x_at) / RFU C5orf56 (11738088_a_at) / Fold change /veh C5orf56 (11738088_a_at) / RFU OLFML3 (11715873_a_at) / Fold change /veh OLFML3 (11715873_a_at) / RFU LOC100653217 /// NTM (11731650_a_at) / Fold change /veh LOC100653217 /// NTM (11731650_a_at) / RFU MAPK11 (11762145_a_at) / Fold change /veh MAPK11 (11762145_a_at) / RFU FIZ1 (11724087_x_at) / Fold change /veh FIZ1 (11724087_x_at) / RFU OASL (11726364_x_at) / Fold change /veh OASL (11726364_x_at) / RFU SOX15 (11748057_x_at) / Fold change /veh SOX15 (11748057_x_at) / RFU CD79A (11719716_a_at) / Fold change /veh CD79A (11719716_a_at) / RFU HIST1H1D (11736915_at) / Fold change /veh HIST1H1D (11736915_at) / RFU CASKIN2 (11723855_a_at) / Fold change /veh CASKIN2 (11723855_a_at) / RFU LOC730098 (11760151_x_at) / Fold change /veh LOC730098 (11760151_x_at) / RFU OR4N2 (11742367_at) / Fold change /veh OR4N2 (11742367_at) / RFU PRRT2 (11749266_a_at) / Fold change /veh PRRT2 (11749266_a_at) / RFU SNX32 (11753110_a_at) / Fold change /veh SNX32 (11753110_a_at) / RFU CDHR5 (11726645_a_at) / Fold change /veh CDHR5 (11726645_a_at) / RFU RCAN1 (11760418_a_at) / Fold change /veh RCAN1 (11760418_a_at) / RFU FAM167A (11723789_a_at) / Fold change /veh FAM167A (11723789_a_at) / RFU FAM26E (11764081_at) / Fold change /veh FAM26E (11764081_at) / RFU ISYNA1 (11749810_s_at) / Fold change /veh ISYNA1 (11749810_s_at) / RFU ACY1 (11761880_at) / Fold change /veh ACY1 (11761880_at) / RFU 11764098_at / Fold change /veh 11764098_at / RFU SAMD14 (11745864_x_at) / Fold change /veh SAMD14 (11745864_x_at) / RFU NPB (11741838_a_at) / Fold change /veh NPB (11741838_a_at) / RFU TMPRSS6 (11731388_a_at) / Fold change /veh TMPRSS6 (11731388_a_at) / RFU KRTAP10-2 (11738614_at) / Fold change /veh KRTAP10-2 (11738614_at) / RFU ARHGAP8 /// PRR5-ARHGAP8 (11727945_x_at) / Fold change /veh ARHGAP8 /// PRR5-ARHGAP8 (11727945_x_at) / RFU KRTAP5-7 /// NADSYN1 (11734609_at) / Fold change /veh KRTAP5-7 /// NADSYN1 (11734609_at) / RFU RASL12 (11751679_a_at) / Fold change /veh RASL12 (11751679_a_at) / RFU CDKN2B (11736163_a_at) / Fold change /veh CDKN2B (11736163_a_at) / RFU PRF1 (11729649_at) / Fold change /veh PRF1 (11729649_at) / RFU, ZNF638 /// ZNF638-IT1 / Fold change vs veh, ZNF638 /// ZNF638-IT1 / RFU, PANK3 / Fold change vs veh, PANK3 / RFU, SH3YL1 / Fold change vs veh, SH3YL1 / RFU, ZEB2 / Fold change vs veh, ZEB2 / RFU, NRIP1 / Fold change vs veh, NRIP1 / RFU, PTTG1IP / Fold change vs veh, PTTG1IP / RFU, CAPN2 / Fold change vs veh, CAPN2 / RFU, MED14 / Fold change vs veh, MED14 / RFU, SNORA58 / Fold change vs veh, SNORA58 / RFU, C1orf63 / Fold change vs veh, C1orf63 / RFU, LRRFIP1 / Fold change vs veh, LRRFIP1 / RFU, NDUFAF7 / Fold change vs veh, NDUFAF7 / RFU, SLC12A2 / Fold change vs veh, SLC12A2 / RFU, IBTK / Fold change vs veh, IBTK / RFU, ESF1 / Fold change vs veh, ESF1 / Fold change vs veh, TMEM50B / RFU, TAOK1 / Fold change vs veh, TAOK1 / RFU, ACBD3 / Fold change vs veh, ACBD3 / RFU, TMA16 / Fold change vs veh, TMA16 / RFU, RWDD3 / Fold change vs veh, RWDD3 / RFU, BCAT1 / Fold change vs veh, BCAT1 / RFU, EDEM3 / Fold change vs veh, EDEM3 / RFU, TMEM33 / Fold change vs veh, TMEM33 / RFU, WDR75 / Fold change vs veh, WDR75 / RFU, AHCTF1 / Fold change vs veh, AHCTF1 / RFU, TFRC / Fold change vs veh, TFRC / RFU, ZDHHC17 / Fold change vs veh, ZDHHC17 / RFU, NOM1 / Fold change vs veh, NOM1 / RFU, ARL8B / Fold change vs veh, ARL8B / RFU, ZBTB11 / Fold change vs veh, ZBTB11 / RFU, TAMM41 / Fold change vs veh, TAMM41 / RFU, KIAA1704 /// LOC100996395 / Fold change vs veh, KIAA1704 /// LOC100996395 / RFU, ING1 / Fold change vs veh, ING1 / RFU, TRMT61B / Fold change vs veh, TRMT61B / RFU, FUBP3 / Fold change vs veh, FUBP3 / RFU, TP53 / Fold change vs veh, TP53 / RFU, TNKS2 / Fold change vs veh, TNKS2 / RFU, ZFP14 / Fold change vs veh, ZFP14 / RFU, ACTR2 / Fold change vs veh, ACTR2 / RFU, PPP3R1 / Fold change vs veh, PPP3R1 / RFU, PIK3R1 / Fold change vs veh, PIK3R1 / RFU, HNRNPA1 / Fold change vs veh, HNRNPA1 / RFU, RNF170 / Fold change vs veh, RNF170 / RFU, ZNF28 / Fold change vs veh, ZNF28 / RFU, RNGTT / Fold change vs veh, RNGTT / RFU, OGT / Fold change vs veh, OGT / RFU, BRD1 / Fold change vs veh, BRD1 / RFU, MARS / Fold change vs veh, MARS / RFU, ZNF655 / Fold change vs veh, ZNF655 / RFU, FAHD1 / Fold change vs veh, FAHD1 / RFU, BDP1 / Fold change vs veh, BDP1 / RFU, LRRCC1 / Fold change vs veh, LRRCC1 / RFU, ARID1A / Fold change vs veh, ARID1A / RFU, ZNF146 / Fold change vs veh, ZNF146 / RFU, ZNF330 / Fold change vs veh, ZNF330 / RFU, GPN3 / Fold change vs veh, GPN3 / RFU, C9orf123 / Fold change vs veh, C9orf123 / RFU, N4BP2L2 / Fold change vs veh, N4BP2L2 / RFU, ARFIP1 / Fold change vs veh, ARFIP1 / RFU, FAM179B / Fold change vs veh, FAM179B / RFU, BCL10 / Fold change vs veh, BCL10 / RFU, UHRF1BP1L / Fold change vs veh, UHRF1BP1L / RFU, BET1 / Fold change vs veh, BET1 / RFU, CNOT2 / Fold change vs veh, CNOT2 / RFU, ZNF268 / Fold change vs veh, ZNF268 / Fold change vs veh, ZNF507 / RFU, DGCR2 / Fold change vs veh, DGCR2 / RFU, WDSUB1 / Fold change vs veh, WDSUB1 / Fold change vs veh, HSP90B1 /// MIR3652 / RFU, ADSS / Fold change vs veh, ADSS / RFU, GK / Fold change vs veh, GK / RFU, ZNF148 / Fold change vs veh, ZNF148 / RFU, TAF9 / Fold change vs veh, TAF9 / RFU, SLC1A5 / Fold change vs veh, SLC1A5 / RFU, SLMO2 / Fold change vs veh, SLMO2 / RFU, ABCC4 / Fold change vs veh, ABCC4 / RFU, LOC101060439 /// RAP1B / Fold change vs veh, LOC101060439 /// RAP1B / RFU, RFX7 / Fold change vs veh, RFX7 / RFU, GTPBP10 / Fold change vs veh, GTPBP10 / RFU, CNEP1R1 / Fold change vs veh, CNEP1R1 / RFU, BIVM-ERCC5 /// ERCC5 / Fold change vs veh, BIVM-ERCC5 /// ERCC5 / RFU, ILF3 / Fold change vs veh, ILF3 / RFU 11762660_at / Fold change /veh 11762660_at / RFU VCAN (11757783_s_at) / Fold change /veh VCAN (11757783_s_at) / RFU DDX43 (11728927_at) / Fold change /veh DDX43 (11728927_at) / RFU KRT8 (11758188_x_at) / Fold change /veh KRT8 (11758188_x_at) / RFU NKD1 (11759106_at) / Fold change /veh NKD1 (11759106_at) / RFU SRD5A1 (11742802_a_at) / Fold change /veh SRD5A1 (11742802_a_at) / RFU TPSAB1 /// TPSB2 (11721975_s_at) / Fold change /veh TPSAB1 /// TPSB2 (11721975_s_at) / RFU GSTM3 (11746129_a_at) / Fold change /veh GSTM3 (11746129_a_at) / RFU IL23R (11737362_x_at) / Fold change /veh IL23R (11737362_x_at) / RFU TMEM51 (11727254_a_at) / Fold change /veh TMEM51 (11727254_a_at) / RFU PIWIL2 (11732686_x_at) / Fold change /veh PIWIL2 (11732686_x_at) / RFU ORM1 (11744905_x_at) / Fold change /veh ORM1 (11744905_x_at) / RFU CCDC152 (11743942_at) / Fold change /veh CCDC152 (11743942_at) / RFU ECM1 (11717891_a_at) / Fold change /veh ECM1 (11717891_a_at) / RFU IL23R (11748794_a_at) / Fold change /veh IL23R (11748794_a_at) / RFU TNFAIP8L3 (11732012_x_at) / Fold change /veh TNFAIP8L3 (11732012_x_at) / RFU MBOAT4 (11741988_at) / Fold change /veh MBOAT4 (11741988_at) / RFU 11764193_at / Fold change /veh 11764193_at / RFU TMEM53 (11763286_at) / Fold change /veh TMEM53 (11763286_at) / RFU MAGEB2 (11727129_at) / Fold change /veh MAGEB2 (11727129_at) / RFU TMEM200A (11744735_a_at) / Fold change /veh TMEM200A (11744735_a_at) / RFU CCDC152 (11751479_a_at) / Fold change /veh CCDC152 (11751479_a_at) / RFU FAM211A (11726209_a_at) / Fold change /veh FAM211A (11726209_a_at) / RFU RGS16 (11746705_a_at) / Fold change /veh RGS16 (11746705_a_at) / RFU VCAN (11755009_s_at) / Fold change /veh VCAN (11755009_s_at) / RFU RHOB (11743442_s_at) / Fold change /veh RHOB (11743442_s_at) / RFU RGS16 (11720943_a_at) / Fold change /veh RGS16 (11720943_a_at) / RFU RGS16 (11720944_at) / Fold change /veh RGS16 (11720944_at) / RFU, VPS4B / Fold change vs veh, VPS4B / RFU, CREB1 / Fold change vs veh, CREB1 / RFU, DNAJC13 / Fold change vs veh, DNAJC13 / RFU, GNAQ / Fold change vs veh, GNAQ / RFU, CDK5R1 / Fold change vs veh, CDK5R1 / RFU, ZRANB3 / Fold change vs veh, ZRANB3 / RFU, CUL4A / Fold change vs veh, CUL4A / RFU, CCNY / Fold change vs veh, CCNY / RFU, UFL1 / Fold change vs veh, UFL1 / RFU, COG3 / Fold change vs veh, COG3 / RFU, DIAPH2 / Fold change vs veh, DIAPH2 / RFU, SKA2 / Fold change vs veh, SKA2 / RFU, AFF3 / Fold change vs veh, AFF3 / RFU, LMF1 / Fold change vs veh, LMF1 / RFU, IPO11 / Fold change vs veh, IPO11 / RFU, DFFB / Fold change vs veh, DFFB / RFU, FOXP1 / Fold change vs veh, FOXP1 / RFU, CARD8 / Fold change vs veh, CARD8 / RFU, STRN3 / Fold change vs veh, STRN3 / RFU, ADK / Fold change vs veh, ADK / RFU, RASSF2 / Fold change vs veh, RASSF2 / RFU, WIPF1 / Fold change vs veh, WIPF1 / RFU, LARP1B / Fold change vs veh, LARP1B / RFU, RASA1 / Fold change vs veh, RASA1 / RFU, RB1 / Fold change vs veh, RB1 / RFU, PPFIA1 / Fold change vs veh, PPFIA1 / RFU, MAT2A / Fold change vs veh, MAT2A / RFU, CCT5 / Fold change vs veh, CCT5 / RFU, WDR92 / Fold change vs veh, WDR92 / RFU, CUX1 / Fold change vs veh, CUX1 / RFU, TTC7A / Fold change vs veh, TTC7A / RFU, TMEM135 / Fold change vs veh, TMEM135 / RFU, DEPTOR / Fold change vs veh, DEPTOR / RFU, CPM / Fold change vs veh, CPM / RFU, DNAJB6 / Fold change vs veh, DNAJB6 / RFU, CACNA2D3 / Fold change vs veh, CACNA2D3 / RFU, DTX4 / Fold change vs veh, DTX4 / RFU, TFCP2 / Fold change vs veh, TFCP2 / RFU, GMCL1 /// GMCL1P1 / Fold change vs veh, GMCL1 /// GMCL1P1 / RFU, AEBP2 / Fold change vs veh, AEBP2 / RFU, SNHG1 /// SNORD22 /// SNORD25 /// SNORD26 /// SNORD27 /// SNORD28 /// SNORD29 /// SNORD31 / Fold change vs veh, SNHG1 /// SNORD22 /// SNORD25 /// SNORD26 /// SNORD27 /// SNORD28 /// SNORD29 /// SNORD31 / Fold change (Aza/veh), C12orf56 (ProbeSet 11735607_a_at) / Fold change (ACY-1035/veh), C12orf56 (ProbeSet 11735607_a_at) / Fold change (Aza/veh), FGFR1OP (ProbeSet 11751329_s_at) / Fold change (ACY-1035/veh), FGFR1OP (ProbeSet 11751329_s_at) / Fold change (Aza/veh), VPS36 (ProbeSet 11739960_a_at) / Fold change (ACY-1035/veh), VPS36 (ProbeSet 11739960_a_at) / RFU SYPL1 (11715823_x_at) / Fold change /veh SYPL1 (11715823_x_at) / RFU IGFBP7 (11715501_s_at) / Fold change /veh IGFBP7 (11715501_s_at) / RFU REEP3 (11722064_at) / Fold change /veh REEP3 (11722064_at) / RFU IGLL1 (11728026_x_at) / Fold change /veh IGLL1 (11728026_x_at): dose or concentration left out as unconfirmed
Conditions: MV-4-11 cells, 48 hours

With Nc1ncn([C@@H]2O[C@H](CO)[C@@H](O)[C@H]2O)c(=O)n1 [azacitidine] as the molecule, how does the “RFU EBF3 (11725865_a_at)” value read?
The value was 64.76 RFU.
